Measurements from patent US11033604B2, “Reagents and methods for treating bacterial infection” (priority 2018, dated 2021).
Non-standard residues stand in square brackets, D forms with d. No end group written: not given here.

Columns and labels:
[1] = test system: S. aureus MN8 biofilms; assay: ThT fluorescence assay of amyloid formation in S. aureus MN8 biofilm cultures; assay type: cell-based, Staphylococcus aureus; settings: MN8 and SH1000 WT strains, particularly MN8; 24 h, 37° C.
Description: We developed a novel protocol to identify amyloid fibril formation during biofilm development in two S. aureus strains—SH1000 WT, a rsbU^+ laboratory strain^27, and MN8, a clinical strain isolated from the human urogenital tract (Table 1). After 24 hours of batch growth in microtiter plates, biofilms were washed and incubated with Thioflavin T (ThT), and the resulting fluorescence signals served as a proxy for the extent of PSM fibril formation in the EM (FIG. 1A). Next, we utilized this assay to test α-sheet amyloid inhibitor designs and control peptides (sequences provided in Table 2) in batch biofilm cultures. The first inhibitor used is AP90 (Alternating Peptide #90, referred to as α1 previously^25,26). […] The AP401 and AP407 designs display similar spectral features by CD, except that AP401 has a positive signal in the random coil region (FIG. 7). AP401 has the same sequence as AP90 but with reversed chirality in the strands and turn, thus the D-amino acids give rise to an approximate mirror image CD spectrum relative to AP90. AP407 is a variant of AP90 with a disulfide bond. An unstructured random coil peptide (RC) and a β-hairpin (β) are used as structural controls.
Designed and control peptides were added to the growth medium prior to inoculation, and biofilms were allowed to grow for 24 hours at 37° C. Planktonic cells were removed and the remaining biofilms were assayed for amyloid content using ThT. […] The disulfide-linked peptide design, AP407, reduced the amyloid fibril formation by 46% and 56% in the MN8 and SH1000 WT strains, respectively. In contrast, the random coil and β-sheet control peptides were ineffective.
Overnight cultures of S. aureus (see Table 1 for a list of strains used in this study) were spun down and re-suspended in fresh Luria-Bertani (LB) media to an optical density of 0.1 (600 nm). These cultures were then mixed with reconstituted peptide (or water, in the case of controls) and aliquoted in quadruplicate into wells of a clear 48-well plate (Corning, TC-treated polystyrene). The final concentration of peptide in each well was 80 μM, unless otherwise noted. Plates were covered and biofilms were grown at 37° C. for 24 hours with gentle rocking. At this time, medium and planktonic cells were removed from wells using a vacuum and the remaining adherent biofilms were rinsed once with PBS (BupH™, Thermo Scientific). Thioflavin T (ThT), an established fluorescent label for amyloid fibrils^40, was then added to each well at a concentration of 22 μM and biofilms were incubated statically for 4 hours at room temperature. The solution was then removed from the wells and PBS was added with vigorous pipetting to detach biofilms from the plate surface. Plates were shaken at high speed for 1 minute on a plate shaker to detach any remaining biofilm material and homogenize the samples. The detached biofilm suspensions were transferred to a 96-well black-walled plate (Corning, TC-treated polystyrene) and ThT fluorescence was read at 438/495 nm on a Perkin-Elmer Enspire™ plate reader. Fluorescence measurements were corrected by subtracting the background intensity of identical samples without ThT. For calculation of live:dead cell ratios, biofilm suspensions were prepared as described above and cells were stained with a 1:1 mixture of Syto9 and propidium iodide (LIVE/DEAD BacLight™ Bacterial Viability Kit, Thermo Scientific). After 15 minutes of incubation at room temperature, fluorescence ratios of the two dyes were determined using a Perkin-Elmer Enspire™ plate reader.

[2] = test system: synthetic PSMα1; assay: PSMα1 fibrillization assay with added inhibitors (ThT); assay type: biochemical, Staphylococcus aureus
Description: FIG. 5. Aggregation of synthetic PSMα1 is inhibited by designed α-sheet peptides. (A) Synthetic PSMα1 peptide (30 μM, <1% DMSO, pH 5.5) was allowed to aggregate alone and in the presence of AP90 (1:4 molar ratio), RC (1:4 molar ratio), or AP407 (1:3 molar ratio). Two different solvent conditions were used (water+<1% DMSO; LB medium+<1% DMSO) and aggregation was monitored by ThT fluorescence. Inhibition values for each peptide are reported as a percentage of the peptide-free control samples (0% inhibition). (B) ThT fluorescence curves monitored the aggregation kinetics of PSMα1 under two different solvent conditions (water+<1% DMSO, black circles; LB medium+<1% DMSO, white circles). Fluorescence values in (B) are averages of 3-6 samples, with error bars to represent the standard deviation of the mean.
Designed α-sheet peptides inhibit amyloid formation through selective binding After establishing the structural transitions required to form amyloid in PSMα1, we examined the effect of the designed α-sheet peptides on the aggregation of PSMα1 in vitro. The designed peptide inhibitors were co-incubated with freshly prepared samples of synthetic PSMα1 (30 μM) and aggregation was monitored by ThT, as described above. To ensure sample homogeneity and removal of any amyloid “seeds” prior to aggregation, the synthetic PSMα1 peptide was treated with DMSO and then diluted into filtered water. […]

[3] = test system: SA; assay: Crystal violet biofilm assay; assay type: cell-based, Staphylococcus aureus
Text: (§1) Furthermore, these same inhibitors are active against EC, SE, and SM.

[4] = test system: Escherichia coli (EC); assay: Crystal violet biofilm assay; assay type: cell-based
Text: as §1

[5] = test system: Pseudomonas aeruginosa (PA); assay: Crystal violet biofilm assay; assay type: cell-based
Text: as §1

[6] = test system: Staphylococcus epidermidis (SE); assay: Crystal violet biofilm assay; assay type: cell-based
Text: as §1

[7] = test system: Streptococcus mutans (SM); assay: Crystal violet biofilm assay; assay type: cell-based
Text: as §1

[8] = test system: P. aeruginosa PAO1 pFap biofilms; assay: In situ ThT assay of Fap amyloid in P. aeruginosa biofilms; assay type: cell-based; settings: LB medium, 37° C., 48 h
Text: FIG. 15. Action of synthetic α-sheet peptides in the P. aeruginosa system. […] Error bars indicate standard deviation of the mean of at least three replicates. Significance values are p<0.05: *, p<0.01: **, p<0.001: ***.
The strain used in these experiments is a fap-overexpressing mutant of P. aeruginosa PAO1 WT called PAO1 pFap. The overexpression is generated by cloning the entire fap operon into a host expression vector, which is then transformed into PAO1 WT. […] For in situ assays, overnight cultures from a single colony of freshly transformed PAO1 pFap were used to inoculate 96 well plates in the presence of synthetic α-sheet peptides in LB medium. As a control, biofilms of the deletion strain PAO1 Δfap were grown under the same conditions. Plates were covered and incubated at 37° C. for 48 h. After incubation, planktonic cells and media were gently removed from the biofilms by pipetting. The biofilms were rinsed once with PBS prior to staining with 20 μM ThT. Stained biofilms were resuspended by pipetting and sonication, and the fluorescence of ThT was measured at 448/485 nm in a plate reader.

With “KLKpLLTSENTL (KLK[dP]LLTSENTL) [RC, unstructured random coil peptide used as structural control]” the “Effect on amyloid fibril formation in S. aureus biofilms (ThT fluorescence, FIG. 1B)” value (shortened to “Effect on amyloid fibril formation”) [1] was “ineffective”, the “Inhibition of PSMα1 fibril formation” value ([2]; 30 μM PSMα1, LB medium + <1% DMSO, 1:4 molar ratio) was “did not significantly influence amyloid formation” and the “Inhibition of PSMα1 amyloid formation” value ([2]; 30 μM PSMα1, water + <1% DMSO, 1:4 molar ratio (excess peptide)) was “little effect”.

With “RGNwNeSkMNEYSGWmLmLtMGR (RGN[dW]N[dE]S[dK]MNEYSGW[dM]L[dM]L[dT]MGR) [AP5]” the “Biofilm inhibition (crystal violet, FIG. 10)” value [3] was “inhibition”, the “Activity against biofilm-forming bacteria (crystal violet)” value (“Activity” below) [4] was “active” and the “Biofilm inhibition (crystal violet, FIG. 10)” value [5] was “inhibition”. For the same substance, the “Activity” value [6] was “active”, the “Activity” value [7] was “active” and the “Amyloid formation in biofilms (ThT)” value [8] was “significantly inhibit amyloid formation”.

“SWTWEpNKWTWK (H-SWTWE[dP]NKWTWK-NH2; SMILES C[C@@H](O)[C@H](NC(=O)[C@H](Cc1c[nH]c2ccccc12)NC(=O)[C@H](CCCCN)NC(=O)[C@H](CC(N)=O)NC(=O)[C@H]1CCCN1C(=O)[C@H](CCC(=O)O)NC(=O)[C@H](Cc1c[nH]c2ccccc12)NC(=O)[C@@H](NC(=O)[C@H](Cc1c[nH]c2ccccc12)NC(=O)[C@@H](N)CO)[C@@H](C)O)C(=O)N[C@@H](Cc1c[nH]c2ccccc12)C(=O)N[C@@H](CCCCN)C(N)=O) [β, β-hairpin structural control peptide, reference compound]” was tested, and the “Effect on amyloid fibril formation” value [1] was “ineffective”.

In the case of “rGeMnLsWmneysGwTmNlKmGr (Ac-[dR]G[dE]M[dN]L[dS]W[dM][dN][dE][dY][dS]G[dW]T[dM]N[dL]K[dM]G[dR]-NH2; SMILES CSCC[C@H](NC(=O)[C@@H](CCC(=O)O)NC(=O)CNC(=O)[C@@H](CCCNC(=N)N)NC(C)=O)C(=O)N[C@H](CC(N)=O)C(=O)N[C@@H](CC(C)C)C(=O)N[C@H](CO)C(=O)N[C@@H](Cc1c[nH]c2ccccc12)C(=O)N[C@H](CCSC)C(=O)N[C@H](CC(N)=O)C(=O)N[C@H](CCC(=O)O)C(=O)N[C@H](Cc1ccc(O)cc1)C(=O)N[C@H](CO)C(=O)NCC(=O)N[C@H](Cc1c[nH]c2ccccc12)C(=O)N[C@H](C(=O)N[C@H](CCSC)C(=O)N[C@@H](CC(N)=O)C(=O)N[C@H](CC(C)C)C(=O)N[C@@H](CCCCN)C(=O)N[C@H](CCSC)C(=O)NCC(=O)N[C@H](CCCNC(=N)N)C(N)=O)[C@@H](C)O) [AP401]”, the “Effect on amyloid fibril formation” value [1] was “significant reduction in amyloid fibril formation”.
